Laboratory results as given in patent publication US9890166B2, “Imidazopyrrolidine derivatives and their use in the treatment of disease” (NOVARTIS AG, priority 2013, dated 2018).

Assays:
[1] = biological target: nuclear BRD4-NUT foci in HCC2494 NUT midline carcinoma cells (Homo sapiens, UniProt O60885); test: cell-based
[2] = test system: THP-1 cells; test: Cell growth inhibition assay (CellTiter-Glo), THP-1; conditions: for GI50: Homo sapiens, THP-1, read-out: THP-1 GI50; for THP-1 TGI: THP-1 cells, total growth inhibition, CellTiter-Glo;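 as to all read-outs here: viability read as cellular ATP luminescence after 4 days, 3-fold dilution series from 10 µM, DMSO vehicle-treated cells taken as 100%, cell-free medium wells as −100%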
[3] = biological target: BRD3 (His-Brd3(20-477)) (Homo sapiens (Human), UniProt Q15059); test: TR-FRET in-vitro binding assay for BRD3; conditions: single determination or n ≧ 2 independent determinations, read-out: Biochemical IC50 BRD3
BRD3 (His-Brd3(20-477)), sequence (Q15059 20-477): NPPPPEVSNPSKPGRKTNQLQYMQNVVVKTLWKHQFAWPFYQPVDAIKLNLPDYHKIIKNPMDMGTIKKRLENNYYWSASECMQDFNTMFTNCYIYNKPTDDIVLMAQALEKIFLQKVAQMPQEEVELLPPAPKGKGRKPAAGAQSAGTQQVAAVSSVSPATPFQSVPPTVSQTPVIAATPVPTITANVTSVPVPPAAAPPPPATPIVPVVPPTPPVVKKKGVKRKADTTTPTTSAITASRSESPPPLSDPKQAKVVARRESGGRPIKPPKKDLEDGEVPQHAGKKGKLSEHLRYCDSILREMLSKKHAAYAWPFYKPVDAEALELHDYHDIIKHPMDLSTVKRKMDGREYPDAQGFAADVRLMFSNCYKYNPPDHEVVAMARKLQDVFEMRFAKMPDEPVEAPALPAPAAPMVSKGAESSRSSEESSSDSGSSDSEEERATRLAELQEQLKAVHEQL
Summary of the method: (§1)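 Compounds were serially diluted over eight concentrations and added to wells. TR-FRET signal was then measured.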

[4] = test system: K-562 cells; test: Cell growth inhibition assay (CellTiter-Glo), K-562; conditions: for GI50: Homo sapiens, K562, read-out: K-562 GI50; for K-562 TGI: K-562 cells, total growth inhibition, CellTiter-Glo;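 as to all read-outs here: cellular ATP measured by luminescence after 4 days of exposure, 3-fold dilution series from 10 µM, DMSO vehicle-treated cells define 100%, cell-free medium wells −100%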
[5] = biological target: CREBBP bromodomain (His-CREBBP(1081-1197)) (Homo sapiens (Human), UniProt Q92793); test: AlphaScreen in-vitro binding assay for CREBBP; conditions: single determination or n ≧ 2 independent determinations, read-out: Biochemical IC50 CREBBP
CREBBP bromodomain (His-CREBBP(1081-1197)), sequence (Q92793 1081-1197): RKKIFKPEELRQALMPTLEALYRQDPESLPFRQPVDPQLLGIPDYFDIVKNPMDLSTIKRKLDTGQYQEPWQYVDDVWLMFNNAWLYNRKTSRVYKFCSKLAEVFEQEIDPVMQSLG
Summary of the method: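 Reactions at 30 °C for 35 min, then Ni-chelate acceptor and streptavidin donor beads in HEPES pH 7.5, NaCl, Tween20, BSA, 60 min at room temperature. Eight-point compound series; IC50 by non-linear regression of percent inhibition.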

[6] = biological target: BRD2 (His-Brd2(60-472)) (Homo sapiens (Human), UniProt P25440); test: TR-FRET in-vitro binding assay for BRD2; conditions: single determination or n ≧ 2 independent determinations, read-out: Biochemical IC50 BRD2
BRD2 (His-Brd2(60-472)), sequence (P25440 60-472): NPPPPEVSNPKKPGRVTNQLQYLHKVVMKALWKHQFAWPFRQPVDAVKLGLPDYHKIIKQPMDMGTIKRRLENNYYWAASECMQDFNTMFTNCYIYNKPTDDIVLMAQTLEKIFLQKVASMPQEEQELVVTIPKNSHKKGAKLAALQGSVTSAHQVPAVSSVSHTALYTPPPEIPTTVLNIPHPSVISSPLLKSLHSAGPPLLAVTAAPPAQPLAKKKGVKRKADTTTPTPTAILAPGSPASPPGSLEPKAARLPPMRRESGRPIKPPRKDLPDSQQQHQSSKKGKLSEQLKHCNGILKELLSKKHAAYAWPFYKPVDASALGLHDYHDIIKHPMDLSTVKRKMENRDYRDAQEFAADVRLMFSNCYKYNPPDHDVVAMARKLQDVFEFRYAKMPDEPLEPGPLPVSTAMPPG
Summary of the method: as §1

[7] = test system: MV-4-11 cells; test: Cell growth inhibition assay (CellTiter-Glo), MV-4-11; conditions: for GI50: Homo sapiens, MV4-11, read-out: MV-4-11 GI50; for MV-4-11 TGI: MV-4-11 cells, total growth inhibition, CellTiter-Glo;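 as to all read-outs here: cellular ATP luminescence after 4 days, 3-fold dilution series from 10 µM top dose, vehicle (0.1% DMSO) set to 100%, cell-free medium set to −100%, day 0 corrected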
[8] = biological target: BRD4 (His-Brd4(44-477)) (Homo sapiens (Human), UniProt O60885); test: TR-FRET in-vitro binding assay for BRD4; conditions: single determination or n ≧ 2 independent determinations, read-out: Biochemical IC50 BRD4
Summary of the method: as §1

| Structure (SMILES) | IC50 [1] | GI50 [2] | THP-1 TGI [2] | IC50 [3] | GI50 [4] | K-562 TGI [4] | IC50 [5] | IC50 [6] | GI50 [7] | MV-4-11 TGI [7] | IC50 [8] |
| --- | --- | --- | --- | --- | --- | --- | --- | --- | --- | --- | --- |
| Cc1cc(N2C(=O)c3c(nc(C)n3C(C)C)[C@H]2c2ccc(Cl)cc2)cc2c1nnn2C [Example 118, (R)-6-(4-chlorophenyl)-5-(3,7-dimethyl-3H-benzo[d][1,2,3]triazol-5-yl)-3-isopropyl-2-methyl-5,6-dihydropyrrolo[3,4-d]imidazol-4(3H)-one] | 0.0034 µM | 0.00512 µM | 0.0125 µM | 0.012 µM | 0.0284 µM | >10 µM | 1.08 µM | 0.014 µM | 0.0021 µM | 0.00379 µM | < 0.011 µM |
| COc1ccc(-c2nc3c([nH]2)C(c2ccc(Cl)cc2)N(c2cc(C)c(=O)n(C)c2)C3=O)cn1 (stereo not shown) [Example 4, 6-(4-chlorophenyl)-5-(1,5-dimethyl-6-oxo-1,6-dihydropyridin-3-yl)-2-(6-methoxypyridin-3-yl)-5,6-dihydropyrrolo[3,4-d]imidazol-4(1H)-one] | 0.0747 µM | 0.11 µM | 0.207 µM | 0.068 µM | 0.254 µM | >10 µM | 1.4 µM | 0.068 µM | 0.0695 µM | 0.116 µM | 0.064 µM |
| COc1cc(N2C(=O)c3nc(C4CC4)n(C(C)C)c3C2c2ccc(Cl)cc2)cn2c(C)nnc12 (stereo not shown) [Example 17, 6-(4-chlorophenyl)-2-cyclopropyl-1-isopropyl-5-(8-methoxy-3-methyl-[1,2,4]triazolo[4,3-a]pyridin-6-yl)-5,6-dihydropyrrolo[3,4-d]imidazol-4(1H)-one] | 0.323 µM | 0.323 µM | 0.7045 µM | 0.075 µM | 1.08 µM | >10 µM | > 37 µM | 0.1 µM | 0.167 µM | 0.3165 µM | 0.041 µM |
| Cc1noc(C)c1-c1nc2c(n1C(C)C)C(c1ccc(Cl)cc1)N(c1cc(C)c(=O)n(C)c1)C2=O (stereo not shown) [Example 27, 6-(4-chlorophenyl)-5-(1,5-dimethyl-6-oxo-1,6-dihydropyridin-3-yl)-2-(3,5-dimethylisoxazol-4-yl)-1-isopropyl-5,6-dihydropyrrolo[3,4-d]imidazol-4(1H)-one] | 0.279 µM | 0.195 µM | 0.433 µM | 0.096 µM | 0.861 µM | >10 µM | – | 0.14 µM | 0.0827 µM | 0.142 µM | 0.12 µM |
| COc1ccc(-c2nc3c([nH]2)C(c2ccc(Cl)cc2)N(c2cc(OC)c4nnc(C)n4c2)C3=O)cn1 (stereo not shown) [Example 125, 6-(4-chlorophenyl)-5-(8-methoxy-3-methyl-[1,2,4]triazolo[4,3-a]pyridin-6-yl)-2-(6-methoxypyridin-3-yl)-5,6-dihydropyrrolo[3,4-d]imidazol-4(1H)-one] | 1.95 µM | 2.14 µM | 3.92 µM | – | 5.29 µM | >10 µM | 34.9 µM | – | 0.809 µM | 1.12 µM | – |
| Cc1cc(N2C(=O)c3c(nc(C)n3C3CC3)C2c2ccc(Cl)cc2)cn2c(C)nnc12 (stereo not shown) [Example 115, 6-(4-chlorophenyl)-3-cyclopropyl-5-(3,8-dimethyl-[1,2,4]triazolo[4,3-a]pyridin-6-yl)-2-methyl-5,6-dihydropyrrolo[3,4-d]imidazol-4(3H)-one] | 0.0205 µM | 0.0234 µM | 0.0581 µM | 0.066 µM | 0.102 µM | >10 µM | – | 0.068 µM | 0.0103 µM | 0.0177 µM | 0.048 µM |
